Reference: the supplement of paper PMC8671470

Key:
Settings in all cases: 72 h
BV-173 [1] = test system: BV-173
Summary of the method: (§1)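 In 384-well plates holding acoustically pre-printed compounds at five tenfold doses from 1 to 10,000 nM, in duplicate, fifteen myeloid leukaemia cell lines were grown in RPMI 1640 for 72 h at 37 °C with 5% CO2. Luminescent ATP viability was scaled between vehicle and a positive control at 10 µM. The IC50 was then taken from log-logistic dose–response fits with four parameters.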

HEL [2] = test system: HEL
Summary of the method: as §1

HL-60 [3] = test system: HL-60
Summary of the method: as §1

K-562 [4] = test system: K-562
Summary of the method: as §1

KCL-22 [5] = test system: KCL-22
Summary of the method: as §1

KG-1 = test system: KG-1
Summary of the method: as §1

KU-812 [6] = test system: KU-812
Summary of the method: as §1

LAMA-84 [7] = test system: LAMA-84
Summary of the method: as §1

ML-2 [8] = test system: ML-2
Summary of the method: as §1

MOLM-13 = test system: MOLM-13
Summary of the method: as §1

MV4-11 = test system: MV4-11
Summary of the method: as §1

Mono-Mac-6 [9] = test system: Mono-Mac-6
Summary of the method: as §1

NOMO-1 [10] = test system: NOMO-1
Summary of the method: as §1

SHI-1 [11] = test system: SHI-1
Summary of the method: as §1

THP-1 = test system: THP-1
Summary of the method: as §1

HL-60 [12] = experiment: cell viability (% survival relative to DMSO control); higher = less cytotoxic
Summary of the method: (§2)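 HL-60 cells in RPMI 1640 with 10% FBS were rescreened against the full library on 384-well plates at five tenfold concentrations, 1–10,000 nM, in duplicate. Each screen was run with DMSO or 100 nM of one of three metabolic inhibitors, for 72 h at 37 °C, 5% CO2. Viability was read by CellTiter-Glo and normalised to DMSO and 10 μM proteasome-inhibitor wells. Where given, area under the curve came from four-parameter log-logistic fits (drc, PharmacoGx).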

BV-173 [13] = experiment: cell viability (% survival relative to DMSO control, bortezomib = 0%); higher = less cytotoxic
Summary of the method: (§3)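 Percent survival is reported as the mean of duplicate wells. Cells from 10 AML and 5 CML lines were plated in 384-well plates containing compounds at 1, 10, 100, 1000 or 10000 nM and kept for 72 h at 37 °C in 5% CO2. Readout used CellTiter-Glo luminescence, scaled so that vehicle equals 100% and a 10 µM positive control equals 0%.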

HEL [14] = experiment: as above
Summary of the method: as §3

HL-60 [15] = experiment: as above
Summary of the method: as §3

K-562 [16] = experiment: as above
Summary of the method: as §3

KCL-22 [17] = experiment: as above
Summary of the method: as §3

KU-812 [18] = experiment: as above
Summary of the method: as §3

LAMA-84 [19] = experiment: as above
Summary of the method: as §3

ML-2 [20] = experiment: as above
Summary of the method: as §3

Mono-Mac-6 [21] = experiment: as above
Summary of the method: as §3

NOMO-1 [22] = experiment: as above
Summary of the method: as §3

SHI-1 [23] = experiment: as above
Summary of the method: as §3

HL-60 [24] = experiment: area under dose-response curve (viability, 1 nM-10 uM) (fraction (0-1)); higher = more sensitive
Summary of the method: as §2

O=C(O)C[C@@]1(O)C[C@@H](CCCCCCc2ccc(Cl)cc2Cl)OC1=O
Settings | IC50 (cell viability) [µM]
BV-173 [1] | > 10
HEL [2] | > 10
HL-60 [3] | > 10
K-562 [4] | > 10
KCL-22 [5] | > 10
KG-1 | > 10
KU-812 [6] | > 10
LAMA-84 [7] | > 10
ML-2 [8] | > 10
MOLM-13 | > 10
MV4-11 | > 10
Mono-Mac-6 [9] | > 10
NOMO-1 [10] | > 10
SHI-1 [11] | > 10
THP-1 | > 10

cell viability [%], HL-60 [12]
Settings | 0.001 µM | 0.01 µM | 0.1 µM | 1 µM | 10 µM
co-treatment: AZD3965 100 nM | 104 | 104 | 100 | 98.7 | 95.4
co-treatment: DMSO vehicle | 102 | 105 | 97.05 | 103 | 99.13
co-treatment: GSK2194069 100 nM | 108 | 108 | 95.77 | 99.5 | 93.44
co-treatment: pictilisib 100 nM | 107 | 109.5 | 92.03 | 103 | 99.5

Settings | area under dose-response curve, co-treatment: AZD3965 100 nM | area under dose-response curve, co-treatment: DMSO vehicle | area under dose-response curve, co-treatment: GSK2194069 100 nM | area under dose-response curve, co-treatment: pictilisib 100 nM | cell viability, 1 nM [%] | cell viability, 10 nM [%] | cell viability, 100 nM [%] | cell viability, 1000 nM [%] | cell viability, 10000 nM [%]
BV-173 [13] | – | – | – | – | 102 | 101 | 97.8 | 96.3 | 96.4
HEL [14] | – | – | – | – | 110 | 118 | 99.2 | 89.2 | 95.6
HL-60 [15] | – | – | – | – | 97.1 | 123 | 100 | 89.3 | 99.8
HL-60 [24] | < 0.0301 | < 0.0301 | < 0.0301 | < 0.0301 | – | – | – | – | –
K-562 [16] | – | – | – | – | 103 | 93.6 | 105 | 102 | 96.8
KCL-22 [17] | – | – | – | – | 97.1 | 107 | 88.4 | 97.5 | 112
KU-812 [18] | – | – | – | – | 92.2 | 99.9 | 96 | 98.7 | 92.4
LAMA-84 [19] | – | – | – | – | 99.6 | 99.8 | 92.7 | 97.3 | 96.7
ML-2 [20] | – | – | – | – | 103 | 116 | 106 | 105 | 106
Mono-Mac-6 [21] | – | – | – | – | 96.3 | 111 | 102 | 92.8 | 96.3
NOMO-1 [22] | – | – | – | – | 101 | 103 | 97.4 | 98.8 | 99.5
SHI-1 [23] | – | – | – | – | 99.7 | 124 | 98.4 | 102 | 96.4

O=C(NCCCCCCNC(=O)ONC1=CCCCC1)ONC1=CCCCC1
Settings | IC50 (cell viability) [µM]
BV-173 [1] | > 10
HEL [2] | > 10
HL-60 [3] | > 10
K-562 [4] | > 10
KCL-22 [5] | > 10
KG-1 | > 10
KU-812 [6] | > 10
LAMA-84 [7] | > 10
ML-2 [8] | > 10
MOLM-13 | > 10
MV4-11 | > 10
Mono-Mac-6 [9] | > 10
NOMO-1 [10] | > 10
SHI-1 [11] | > 10
THP-1 | > 10

cell viability [%], HL-60 [12]
Settings | 0.001 µM | 0.01 µM | 0.1 µM | 1 µM | 10 µM
co-treatment: AZD3965 100 nM | 99.5 | 99 | 99.3 | 100.9 | 98.9
co-treatment: DMSO vehicle | 97 | 99.2 | 96.8 | 102 | 97.3
co-treatment: GSK2194069 100 nM | 99.1 | 101 | 70.1 | 87.3 | 105
co-treatment: pictilisib 100 nM | 105 | 102 | 104 | 95 | 86.2

Settings | area under dose-response curve, co-treatment: AZD3965 100 nM | area under dose-response curve, co-treatment: DMSO vehicle | area under dose-response curve, co-treatment: GSK2194069 100 nM | area under dose-response curve, co-treatment: pictilisib 100 nM | cell viability, 1 nM [%] | cell viability, 10 nM [%] | cell viability, 100 nM [%] | cell viability, 1000 nM [%] | cell viability, 10000 nM [%]
BV-173 [13] | – | – | – | – | 89.4 | 107 | 114 | 110 | 95.2
HEL [14] | – | – | – | – | 90.8 | 104 | 117 | 113 | 90.9
HL-60 [15] | – | – | – | – | 106 | 107 | 124 | 111 | 93.8
HL-60 [24] | < 0.0301 | < 0.0301 | < 0.0301 | < 0.0301 | – | – | – | – | –
K-562 [16] | – | – | – | – | 97.9 | 120 | 116 | 101 | 89.5
KCL-22 [17] | – | – | – | – | 106 | 100 | 115 | 102 | 94.6
KU-812 [18] | – | – | – | – | 104 | 110 | 113 | 101 | 92.4
LAMA-84 [19] | – | – | – | – | 104 | 103 | 112 | 101 | 103
ML-2 [20] | – | – | – | – | 94.8 | 107 | 108 | 107 | 99.1
Mono-Mac-6 [21] | – | – | – | – | 90.6 | 110 | 103 | 98.8 | 102
NOMO-1 [22] | – | – | – | – | 98.9 | 117 | 112 | 112 | 102
SHI-1 [23] | – | – | – | – | 98.7 | 103 | 112 | 112 | 97.3

O=C(C1CC1)N1CC[C@@H](C=C2NNC(=O)N2c2ccc(-c3ccc4occc4c3)cc2)C1
Settings | IC50 (cell viability) [µM]
BV-173 [1] | > 10
HEL [2] | > 10
HL-60 [3] | 0.0437
K-562 [4] | > 10
KCL-22 [5] | 9.06
KG-1 | > 10
KU-812 [6] | > 10
LAMA-84 [7] | > 10
ML-2 [8] | > 10
MOLM-13 | 1.47
MV4-11 | > 10
Mono-Mac-6 [9] | > 10
NOMO-1 [10] | > 10
SHI-1 [11] | > 10
THP-1 | > 10

cell viability [%], HL-60 [12]
Settings | 0.001 µM | 0.01 µM | 0.1 µM | 1 µM | 10 µM
co-treatment: AZD3965 100 nM | 101 | 104 | 81.6 | 76.9 | 68.9
co-treatment: DMSO vehicle | 101 | 105 | 95.1 | 92 | 85.8
co-treatment: GSK2194069 100 nM | 96.3 | 103.6 | 92 | 86.9 | 82.4
co-treatment: pictilisib 100 nM | 97.7 | 104 | 92.53 | 76.6 | 73.1

cell viability [%]
Settings | 1 nM | 10 nM | 100 nM | 1000 nM | 10000 nM
BV-173 [13] | 97.1 | 86.3 | 82.4 | 79 | 63.7
HEL [14] | 106 | 90.5 | 107 | 101 | 78.5
HL-60 [15] | 101 | 66.7 | 48.4 | 35 | 38.1
K-562 [16] | 95.4 | 78.1 | 73 | 79 | 54.4
KCL-22 [17] | 99.1 | 101 | 94.9 | 86.2 | 58.3
KU-812 [18] | 99.8 | 94.8 | 99.9 | 102 | 67.1
LAMA-84 [19] | 98.5 | 97.5 | 88.7 | 82.8 | 72.4
ML-2 [20] | 101 | 98.4 | 107 | 97.8 | 88.4
Mono-Mac-6 [21] | 94.7 | 91.2 | 90 | 88 | 64.9
NOMO-1 [22] | 98.1 | 98.6 | 107 | 99.4 | 89.9
SHI-1 [23] | 90.4 | 99.4 | 108 | 94.7 | 79.6
